The term IC50 denotes the point on the concentration scale where inhibition reaches its midpoint. High values mean weaker potency in that assay, low ones greater potency in that assay.

The assay concerns the target T1, human TLR7 (Homo sapiens, UniProt Q9NYK1).
T1 construct: host or cells: HEK-Blue cells
T1 sequence (Q9NYK1 27-1049): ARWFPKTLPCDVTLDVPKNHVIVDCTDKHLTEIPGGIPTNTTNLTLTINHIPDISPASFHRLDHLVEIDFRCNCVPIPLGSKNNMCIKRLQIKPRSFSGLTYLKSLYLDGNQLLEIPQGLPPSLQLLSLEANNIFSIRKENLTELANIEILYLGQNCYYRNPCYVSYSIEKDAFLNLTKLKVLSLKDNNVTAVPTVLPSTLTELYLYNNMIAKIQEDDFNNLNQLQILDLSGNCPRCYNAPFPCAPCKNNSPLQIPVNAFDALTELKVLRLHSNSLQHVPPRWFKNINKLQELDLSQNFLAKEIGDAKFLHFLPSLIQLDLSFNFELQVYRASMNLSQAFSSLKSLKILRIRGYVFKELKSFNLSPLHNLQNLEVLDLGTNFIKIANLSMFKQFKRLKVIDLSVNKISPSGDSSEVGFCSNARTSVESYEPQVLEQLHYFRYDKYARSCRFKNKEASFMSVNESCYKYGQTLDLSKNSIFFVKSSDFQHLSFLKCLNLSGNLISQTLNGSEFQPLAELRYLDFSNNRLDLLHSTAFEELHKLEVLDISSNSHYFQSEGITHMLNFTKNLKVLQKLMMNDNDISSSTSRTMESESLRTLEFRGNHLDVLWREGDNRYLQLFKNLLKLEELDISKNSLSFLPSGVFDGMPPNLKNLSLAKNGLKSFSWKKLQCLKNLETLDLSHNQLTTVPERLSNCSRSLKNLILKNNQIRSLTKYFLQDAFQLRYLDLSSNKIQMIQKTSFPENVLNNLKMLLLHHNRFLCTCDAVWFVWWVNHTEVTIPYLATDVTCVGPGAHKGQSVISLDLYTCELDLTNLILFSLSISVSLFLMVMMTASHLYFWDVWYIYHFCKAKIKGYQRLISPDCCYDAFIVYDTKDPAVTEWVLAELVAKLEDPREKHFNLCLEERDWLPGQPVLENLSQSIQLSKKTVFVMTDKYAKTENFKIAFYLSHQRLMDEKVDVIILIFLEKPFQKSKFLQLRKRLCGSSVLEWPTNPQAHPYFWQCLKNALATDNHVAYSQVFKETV
The assay is described as follows: TLR7 inhibition reporter assay (HEK-Blue SEAP). Format: cell-based. Conditions: HEK-Blue cells overexpressing human TLR7, gardiquimod 7.5 μM, 22 hour incubation. The procedure, abridged:
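SEAP readout via HEK-Blue Detection medium after 22 h at 37 °C, 5% CO2 defines inhibition, normalized between agonist-plus-DMSO wells and a reference inhibitor. Compound dose range 0.05 nM–50 μM; TLR7 cells at 15,000/well (gardiquimod), TLR8 at 20,000/well (R848).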
In turn, `COc1c(C)c(-c2cc3[nH]c(=O)n(C4CCC(N5CC(F)C5)CC4)c3cc2C(C)C)cn2ncnc12` (single isomer, unassigned) [Example 264, 1-(4-(3-fluoroazetidin-1-yl)cyclohexyl)-6-isopropyl-5-(8-methoxy-7-methyl-[1,2,4]triazolo[1,5-a]pyridin-6-yl)-1,3-dihydro-2H-benzo[d]imidazol-2-one] displayed an IC50 of 0.0284 µM.

Compound `CCN[C@H]1CC[C@@H](n2c(=O)[nH]c3cc(-c4cc(C)c5ncnn5c4)c(C)cc32)CC1` [Example 21, 1-((1s,4s)-4-(ethylamino)cyclohexyl)-6-methyl-5-(8-methyl-[1,2,4]triazolo[1,5-a]pyridin-6-yl)-1,3-dihydro-2H-benzo[d]imidazol-2-one] gave an IC50 of 0.0133 µM.

Consider `Cc1c(-c2cc3[nH]c(=O)n(C4CCC(N5CCCOCC5)CC4)c3cc2C(C)C)cn2ncnc2c1C` (stereo not drawn) [Example 271, 1-(4-(1,4-oxazepan-4-yl)cyclohexyl)-5-(7,8-dimethyl-[1,2,4]triazolo[1,5-a]pyridin-6-yl)-6-isopropyl-1,3-dihydro-2H-benzo[d]imidazol-2-one], for which the IC50 was determined as 0.00606 µM.

Compound `COc1c(C)c(-c2cc3[nH]c(=O)n(C4CCC(N5CC6(COC6)C5)CC4)c3cc2C(C)C)cn2ncnc12` (single isomer, unassigned) [Example 269, 1-(4-(2-oxa-6-azaspiro[3.3]heptan-6-yl)cyclohexyl)-6-isopropyl-5-(8-methoxy-7-methyl-[1,2,4]triazolo[1,5-a]pyridin-6-yl)-1,3-dihydro-2H-benzo[d]imidazol-2-one] came in with an IC50 of 0.00573 µM.

On to `Cc1c(-c2cc3[nH]c(=O)n(C4CCC(N5CCC(F)(F)CC5)CC4)c3cc2C(C)C)cn2ncnc2c1C` (single isomer, unassigned) [Example 276, 1-(4-(4,4-difluoropiperidin-1-yl)cyclohexyl)-5-(7,8-dimethyl-[1,2,4]triazolo[1,5-a]pyridin-6-yl)-6-isopropyl-1,3-dihydro-2H-benzo[d]imidazol-2-one], for which half-maximal inhibition (IC50) required 0.0617 µM.

Consider `Cc1c(-c2cc3[nH]c(=O)n(C4CCC(N5CCCC(F)C5)CC4)c3cc2C(C)C)cn2ncnc2c1C` (stereo not drawn) [Example 274, 5-(7,8-dimethyl-[1,2,4]triazolo[1,5-a]pyridin-6-yl)-1-(4-(3-fluoropiperidin-1-yl)cyclohexyl)-6-isopropyl-1,3-dihydro-2H-benzo[d]imidazol-2-one], for which the IC50 was found to be 0.00678 µM.

The compound `COc1c(C)c(-c2cc3[nH]c(=O)n(C4CCC(N5CC(OC)C5)CC4)c3cc2C(C)C)cn2ncnc12` (stereo not drawn) [Example 265, 6-isopropyl-5-(8-methoxy-7-methyl-[1,2,4]triazolo[1,5-a]pyridin-6-yl)-1-(4-(3-methoxyazetidin-1-yl)cyclohexyl)-1,3-dihydro-2H-benzo[d]imidazol-2-one] gave an IC50 of 0.00718 µM.

`Cc1cc2c(cc1-c1cc(C)c3ncnn3c1)[nH]c(=O)n2[C@H]1CC[C@@H](N(C)C)CC1` [Example 19, 1-((1s,4s)-4-(dimethylamino)cyclohexyl)-6-methyl-5-(8-methyl-[1,2,4]triazolo[1,5-a]pyridin-6-yl)-1,3-dihydro-2H-benzo[d]imidazol-2-one] showed an IC50 of 0.0213 µM.

The compound `COc1cc(-c2cc3[nH]c(=O)n(C4CCC(N5CCC(F)(F)C5)CC4)c3cc2C(C)C)cn2ncnc12` (single isomer, unassigned) [Example 295, 1-(4-(3,3-difluoropyrrolidin-1-yl)cyclohexyl)-6-isopropyl-5-(8-methoxy-[1,2,4]triazolo[1,5-a]pyridin-6-yl)-1,3-dihydro-2H-benzo[d]imidazol-2-one] showed an IC50 of 0.0418 µM.

In turn, `Cc1cc2c(cc1-c1cc(C)c3ncnn3c1)[nH]c(=O)n2[C@H]1CC[C@@H](NC(C)C)CC1` [Example 22, 1-((1s,4s)-4-(isopropylamino)cyclohexyl)-6-methyl-5-(8-methyl-[1,2,4]triazolo[1,5-a]pyridin-6-yl)-1,3-dihydro-2H-benzo[d]imidazol-2-one] had an IC50 of 0.00477 µM.

`Cc1c(-c2cc3[nH]c(=O)n(C4CCC(N5CCC6(CC5)COC6)CC4)c3cc2C(C)C)cn2ncnc2c1C` (single isomer, unassigned) [Example 283, 1-(4-(2-oxa-7-azaspiro[3.5]nonan-7-yl)cyclohexyl)-5-(7,8-dimethyl-[1,2,4]triazolo[1,5-a]pyridin-6-yl)-6-isopropyl-1,3-dihydro-2H-benzo[d]imidazol-2-one] yielded an IC50 of 0.00182 µM.

Turning to `Cc1c(-c2cc3[nH]c(=O)n(C4CCC(N5CC(F)C5)CC4)c3cc2C(C)C)cn2ncnc2c1C` (stereo not drawn) [Example 279, 5-(7,8-dimethyl-[1,2,4]triazolo[1,5-a]pyridin-6-yl)-1-(4-(3-fluoroazetidin-1-yl)cyclohexyl)-6-isopropyl-1,3-dihydro-2H-benzo[d]imidazol-2-one], the IC50 worked out at 0.00289 µM.

Compound `Cc1c(-c2cc3[nH]c(=O)n(C4CCC(N5CC6(COC6)C5)CC4)c3cc2C(C)C)cn2ncnc2c1C` (single isomer, unassigned) [Example 298] gave an IC50 of 0.0165 µM.

`COc1cc(-c2cc3[nH]c(=O)n(C4CCC(N5CC(F)(F)C5)CC4)c3cc2C(C)C)cn2ncnc12` (single isomer, unassigned) [Example 296] came in with an IC50 of 0.0314 µM.

Compound `COc1cc(-c2cc3[nH]c(=O)n(C4CCC(N5CC[C@H](F)C5)CC4)c3cc2C(C)C)cn2ncnc12` (stereo partly drawn) [Example 287, (S)-1-(4-(3-fluoropyrrolidin-1-yl)cyclohexyl)-6-isopropyl-5-(8-methoxy-[1,2,4]triazolo[1,5-a]pyridin-6-yl)-1,3-dihydro-2H-benzo[d]imidazol-2-one] showed an IC50 of 0.00153 µM.

Turning to `COc1cc(-c2cc3[nH]c(=O)n([C@H]4CC[C@@H](N)CC4)c3cc2C)cn2ncnc12` [1 EG, 1-((1s,4s)-4-aminocyclohexyl)-5-(8-methoxy-[1,2,4]triazolo[1,5-a]pyridin-6-yl)-6-methyl-1,3-dihydro-2H-benzo[d]imidazol-2-one], the IC50 was found to be 0.0532 µM.

For `COc1c(C)c(-c2cc3[nH]c(=O)n(C4CCC(N5CC(OC)C5)CC4)c3cc2C(C)C)cn2ncnc12` (stereo not drawn) [Example 266, 6-isopropyl-5-(8-methoxy-7-methyl-[1,2,4]triazolo[1,5-a]pyridin-6-yl)-1-(4-(3-methoxyazetidin-1-yl)cyclohexyl)-1,3-dihydro-2H-benzo[d]imidazol-2-one], the midpoint of inhibition, the IC50, lay at 0.0134 µM.

The compound `Cc1c(-c2cc3[nH]c(=O)n(C4CCC(N5CCCOCC5)CC4)c3cc2C(C)C)cn2ncnc2c1C` (stereo not drawn) [Example 272, 1-(4-(1,4-oxazepan-4-yl)cyclohexyl)-5-(7,8-dimethyl-[1,2,4]triazolo[1,5-a]pyridin-6-yl)-6-isopropyl-1,3-dihydro-2H-benzo[d]imidazol-2-one] had an IC50 of 0.00537 µM.

For `COCCNC1CCC(n2c(=O)[nH]c3cc(-c4cn5ncnc5c(OC)c4C)c(C(C)C)cc32)CC1` (stereo not drawn) [Example 258], the IC50 turned out to be 0.00425 µM.

In turn, `Cc1cc2c(cc1-c1cc(C)c3ncnn3c1)[nH]c(=O)n2[C@H]1CC[C@@H](NCCC(F)(F)F)CC1` [Example 31] gave an IC50 of 0.0111 µM.

For `Cc1c(-c2cc3[nH]c(=O)n(C4CCC(N5CC6(COC6)C5)CC4)c3cc2C(C)C)cn2ncnc2c1C` (single isomer, unassigned) [Example 281, 1-(4-(2-oxa-6-azaspiro[3.3]heptan-6-yl)cyclohexyl)-5-(7,8-dimethyl-[1,2,4]triazolo[1,5-a]pyridin-6-yl)-6-isopropyl-1,3-dihydro-2H-benzo[d]imidazol-2-one], the IC50 was found to be 0.0124 µM.
